From US20080275111A1, “Novel Use of Lignan Compounds” (priority 2005, published 2008)

Assays:
[1] = tested on: cell line HT-22; assay: Brain cell apoptosis induced by glutamate in HT-22 (WST-1); format: cell-based; details: HT-22, 5 mM glutamate 24 hours, compound 1, 2, 5 and 10 μM
Description: A cell line HT-22 derived from the hippocampus was treated with 5 mM glutamate for 24 hours to induce apoptosis. As a control, the cell line HT-22 was not treated with glutamate. Then, the cell line HT-22 was treated with the lignan compound of the present invention at concentrations (1, 2, 5 and 10 μM) for 24 hours. The cell death was analyzed with WST-1(Roche).

[2] = tested on: TNF-α; assay: TNF-α production in LPS-activated microglia (ELISA); format: cell-based, rat; details: 1 μg/ml LPS, compound 2.5 and 10 μM, 24 hours
Excerpt: When the microglia is activated by LPS, it synthesizes and secretes various pro-inflammatory cytokines such as IL-1, IL-6 and TNF-α (Chen, S. Neurobiol. Aging, 17:781-787, 1996). Therefore, in order to examine the anti-inflammatory effect of the lignan compound of the present invention, the effect of the lignan compound of the present invention on the production of IL-6 and TNF-α in the activated microglia. First, only the neocortex was isolated from the brain of 1 day-old rat. Then, a microglia-astroglia mixture was prepared according to a method known in the art (Kim, H. Y. et al., J. Immunol., 171:6072-6079, 2003). […] Then, the amount of IL-6 and TNF-α secreted into the cell cultured medium was measured with the solid-phase ELISA system (RPN2742 for IL-6, RPN2744 for TNF-α, Amersham Bioscience). For this analysis, 50 μl of the supernatant of the cultured medium of microglia and 50 μl of the standard of each material (purely isolated and quantified IL-6 or TNF-α) were added into a 96-well plate coated with an antibody specific to mouse IL-6 and TNF-α. […] Then, 100 μl of a stop solution (Amersham Bioscience) was added into each well to stop the reaction, and the absorbance of the solution in each well was measured with a microreader at 450 nm. […]

[3] = tested on: cell line HT-22; assay: Reactive oxygen species production in cell line HT-22 (CM-H2DCFDA); format: cell-based; details: 5 μM compound, 8 hours
Description: A cell line HT-22 (obtained from Dr. David Schubert) derived from the hippocampus playing a part in memory of the brain was treated with 5 mM of glutamate and 5 μM of the lignan compound of the present invention simultaneously for 8 hours. As a control, the cell line HT-22 was not treated with the lignan compound of the present invention. The treated cell line HT-22 was then treated with CM-H2DCFDA (chloromethyl derivative of dichlorodihydrofluorescein diacetate, Molecular Probes) to analyze the production of reactive oxygen species.

[4] = tested on: COX-2; assay: COX-2 expression in LPS-activated microglia (Western blotting); format: cell-based, mouse; details: 1 μg/ml LPS, compound 2.5 and 10 μM, 16 or 24 hours
Excerpt: In Example <6-2>, it was observed that the NO production induced by LPS in the tissue-cultured microglia of mouse was inhibited by the lignan compound of the present invention. NO is produced by iNOS enzyme of which expression is induced by activation of microglia. Therefore, the correlation between the reduction of NO production and inhibition of iNOS expression was examined. Additionally, a change in the amount of a protein COX-2 participating in the production of other inflammation-mediating materials was examined. For Western blotting analysis, tissue-cultured microglia was cultured in a 60 mm cell culture dish up to a concentration of 7.5×10^5 cells/ml. After 1 day of cultivation, the activation of microglia was induced by 1 μg/ml of LPS (Sigma) treatment. Simultaneously, the microglia was also treated with 2.5 and 10 μM of the lignan compound of the present invention together with LPS, and incubated for 16 or 24 hours. The incubated cell was washed with cold PBS 2 times, and then dissolved in a cold lysis buffer (1% SDS, 1 mM Na3VO4, 10 mM NaF, 10 mM Tris-Cl, pH 7.4 containing 1× protease inhibitors cocktail). […] Then, the amount of proteins was quantified according to BCA method. […]
NaCl containing 0.1% Tween 20) 3 times. […] Again, the membrane was then washed with TBS-T solution 3 times, and each band on the membrane was analyzed using ECL system (Sigma).

COc1cc(C[C@H](C)[C@H](C)Cc2ccc3c(c2)OCO3)ccc1O [macelignan, (8R,8′S)-7-(3,4-methylenedioxyphenyl)-7′-(4-hydroxy-3-methoxyphenyl)-8,8′-dimethylbutane]
brain cell apoptosis induced by glutamate [1]: dose-dependently inhibited | production of TNF-α induced by LPS [2]: dose-dependently inhibited | production of reactive oxygen species induced by glutamate ([3]; HT-22, 5 mM glutamate): inhibited | production of reactive oxygen species occurred naturally in a cell ([3]; HT-22 not treated with glutamate): significantly inhibited | expression of COX-2 induced by LPS [4]: inhibited in a concentration dependent manner
